One molecule from paper PMC12131194, “Rational design, synthesis, and evaluation of novel polypharmacological compounds targeting NaV1.5, KV1.5, and K2P channels for atrial fibrillation” (The Journal of Biological Chemistry, 2025) can be followed below.

Structures are written as SMILES.

In the assay the target is T1, human NaV1.5 (Homo sapiens, UniProt Q14524).
T1 construct: host or cells: HEK-293 (transient transfection)
In words: Whole-cell patch-clamp in transfected HEK-293 cells, NaV1.5. Type of assay: cell-based. To be noted: 10 μM and 100 μM, −10 mV. The method, then: The human embryonic kidney 293 (HEK-293) cell line was obtained from the American Type Culture Collection. HEK-293 cells were cultured in Dulbecco’s modified Eagle’s medium (DMEM-F12, Invitrogen Life Technologies) supplemented with 5% (v/v) fetal bovine serum (FBS) (Thermo Fisher Scientific) and 1% antibiotics (penicillin 100 U/ml y streptomycin 100 μg/ml) (Gibco, Thermo Fisher). The cells were maintained at 37 °C and 5% CO2 atmosphere.
For the electrophysiological experiments, HEK-293 cells were transiently transfected with cDNA encoding human NaV1.5 (plasmid 145,374, Addgene), KV1.5 (NM_002234), and TASK-1 (NM_002246). […] The cells were incubated for 4 h in transfection medium OptiMEM (Invitrogen). […]
For Nav1.5, the effect of 6f at both concentrations was tested using a repetitive single test voltage pulse at −10 mV (during 20 ms) from a holding potential of −80 mV, with intervals of 5s between pulses. For Kv1.5 and TASK-1, ramp voltage protocols were applied with pulse intervals of 20 s, and the currents were analyzed at +40 mV.
After recording currents with stable amplitudes, the cells were treated with 6f and applied from the bath solution. Currents were continuously recorded during repetitive pulses until a stable effect was achieved. […] The inhibition percentage was calculated as follows: Inℎibition (%) = 100 ∗ (Icontrol − Idrug)/Icontrol.

T1 sequence (Q14524 whole entry): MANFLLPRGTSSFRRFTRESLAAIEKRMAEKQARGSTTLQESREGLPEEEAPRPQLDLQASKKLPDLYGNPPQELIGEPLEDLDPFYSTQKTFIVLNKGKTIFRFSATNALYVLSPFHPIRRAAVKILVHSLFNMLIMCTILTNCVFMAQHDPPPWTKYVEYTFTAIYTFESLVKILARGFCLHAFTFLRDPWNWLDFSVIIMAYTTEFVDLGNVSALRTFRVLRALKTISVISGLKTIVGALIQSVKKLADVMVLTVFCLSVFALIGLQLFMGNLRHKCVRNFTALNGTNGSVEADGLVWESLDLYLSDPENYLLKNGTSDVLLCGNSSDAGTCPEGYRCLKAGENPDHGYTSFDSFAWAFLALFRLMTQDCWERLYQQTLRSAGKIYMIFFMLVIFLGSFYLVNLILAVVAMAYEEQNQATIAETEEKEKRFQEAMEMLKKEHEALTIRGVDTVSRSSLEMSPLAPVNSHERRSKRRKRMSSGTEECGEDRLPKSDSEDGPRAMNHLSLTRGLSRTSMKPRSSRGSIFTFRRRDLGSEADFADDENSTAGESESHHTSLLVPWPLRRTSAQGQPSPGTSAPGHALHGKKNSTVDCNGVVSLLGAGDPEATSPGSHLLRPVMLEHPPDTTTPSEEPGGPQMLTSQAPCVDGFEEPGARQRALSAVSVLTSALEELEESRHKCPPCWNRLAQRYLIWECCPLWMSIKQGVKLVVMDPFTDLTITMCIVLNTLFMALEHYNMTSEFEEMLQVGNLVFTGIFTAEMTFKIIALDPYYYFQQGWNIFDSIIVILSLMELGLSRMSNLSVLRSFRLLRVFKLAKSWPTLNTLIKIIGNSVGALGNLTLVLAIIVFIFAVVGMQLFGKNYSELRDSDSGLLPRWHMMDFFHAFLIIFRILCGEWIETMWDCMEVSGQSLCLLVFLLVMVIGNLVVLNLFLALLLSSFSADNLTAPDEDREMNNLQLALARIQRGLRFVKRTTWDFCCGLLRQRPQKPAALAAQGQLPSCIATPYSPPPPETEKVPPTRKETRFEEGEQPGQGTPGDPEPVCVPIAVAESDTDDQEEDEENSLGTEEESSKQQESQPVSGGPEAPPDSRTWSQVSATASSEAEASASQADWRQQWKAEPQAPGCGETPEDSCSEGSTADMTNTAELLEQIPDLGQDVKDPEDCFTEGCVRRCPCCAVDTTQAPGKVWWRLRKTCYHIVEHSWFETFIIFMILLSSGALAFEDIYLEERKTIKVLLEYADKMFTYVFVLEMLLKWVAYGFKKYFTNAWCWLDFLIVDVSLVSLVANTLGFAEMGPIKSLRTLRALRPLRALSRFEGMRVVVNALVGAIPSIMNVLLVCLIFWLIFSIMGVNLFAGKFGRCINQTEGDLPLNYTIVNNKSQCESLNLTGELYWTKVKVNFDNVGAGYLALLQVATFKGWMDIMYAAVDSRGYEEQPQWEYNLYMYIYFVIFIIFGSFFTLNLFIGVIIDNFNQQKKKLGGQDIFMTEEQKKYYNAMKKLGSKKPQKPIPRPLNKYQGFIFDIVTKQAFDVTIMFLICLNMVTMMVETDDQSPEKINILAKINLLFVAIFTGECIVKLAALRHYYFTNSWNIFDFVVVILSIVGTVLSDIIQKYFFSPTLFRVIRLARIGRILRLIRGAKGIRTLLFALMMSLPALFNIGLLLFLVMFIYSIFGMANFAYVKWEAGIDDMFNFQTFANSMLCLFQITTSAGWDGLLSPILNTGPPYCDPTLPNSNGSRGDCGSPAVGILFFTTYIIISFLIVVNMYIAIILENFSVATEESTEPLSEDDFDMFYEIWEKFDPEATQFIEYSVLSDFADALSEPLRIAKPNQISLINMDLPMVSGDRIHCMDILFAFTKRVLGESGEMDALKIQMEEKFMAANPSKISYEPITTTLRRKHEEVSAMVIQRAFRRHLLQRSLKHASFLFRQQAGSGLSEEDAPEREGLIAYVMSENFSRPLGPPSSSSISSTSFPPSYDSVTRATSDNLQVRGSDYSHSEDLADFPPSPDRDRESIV

Turning to `CCCCN(CCCC)CC(=O)Nc1ccc(OC)cc1OC` [Compound 6f, 2-(dibutylamine)-N-(2,4-dimethoxiphenyl)acetamide], the “Blockade of NaV1.5 in HEK cells” value is given as “significant blockade by 6f only at 100 μM”.
